Columns and labels:
RKO cells [1] = test: CellTiter-Glo cell viability assay in RKO cells (WT KRas, express HGF); type: cell-based; details: FIG. 1A; 96 hours after treatment; gefitinib 5 μM, JNJ 38877605 1 μM, PD184161 0.01, 0.05 or 1 μM
Procedure: Cell viability assays were conducted using the CellTiter-Glo® Luminescent Cell Viability Assay kit purchased from Promega Corporation (Madison, Wis., US) and used per the manufacturer's protocol. Cells were seeded in 96-well plates at a density of 1×10^4 cells per well and cell viability was assessed at the indicated time points.

DiFi cells = test: Caspase-Glo 3/7 activity assay in DiFi cells with or without CCD-18Co fibroblast conditioned medium; type: cell-based; details: FIG. 3C, 18 hr post-treatment; for caspase 3/7 activity (apoptosis), single agent: gefitinib 1 μM or JNJ 38877605 1 μM alone, no fibroblast conditioned media
Text: Media were removed and replaced with serum-free MEM.

HCT116 cells [2] = test: CellTiter-Glo cell viability assay in HCT116 cells (MT KRas, express HGF); type: cell-based; details: FIG. 2A; 96 hours after treatment; gefitinib 5 μM, JNJ 38877605 1 μM, PD184161 0.01 or 0.02 μM
Text: Due to the presence of MT KRas, HCT116 cells have activated ERK signaling.

HCT116 cells [3] = test: Clonogenic (colony formation) assay in HCT116 cells; type: cell-based; details: FIG. 2B; 10 days after treatment; gefitinib 5 μM, JNJ 38877605 1 μM, PD184161 0.01 or 0.02 μM
Procedure: HCT116 cells, which are MT KRas, were treated with gefitinib (5 μM) in the absence or presence of a MET kinase inhibitor (JNJ 38877605; 1 μM) or a MEKI kinase inhibitor (PD184161; 0.01 μM or 0.02 μM) as indicated.
(§1) For clonogenic assay cells were seeded in 6-well plates at a density of 400 cells per well and were treated as indicated. After colony formation (8-12 days), cells were stained with crystal violet (0.5% w/v) (see Kueng W., et al., Anal Biochem (1989) 182: 16-19), and the number of colonies was determined using ImageQuant TL software (GE Healthcare Life Sciences, Pittsburgh, Pa., US).

RKO cells [4] = test: Clonogenic (colony formation) assay in RKO cells; type: cell-based; details: FIG. 1B; 10 days after treatment; gefitinib 5 μM, JNJ 38877605 1 μM, PD184161 0.01, 0.05 or 1 μM
Procedure: as §1
The effect of treatment with gefitinib alone or in combination with an inhibitor of MET kinase activity (using the inhibitor JNJ388777605) or inhibitor of MEK kinase activity (using the inhibitor PD184161) on viability and clonogenic growth was determined in RKO and HT29 cells.

ERK 1/2 = test: Western blot of ERK 1/2 phosphorylation in RKO cells; type: cell-based; details: FIG. 1D, gefitinib dose or times post-treatment
Procedure: Immunoblotting was performed using standard procedures. Nitrocellulose membranes (GE Healthcare Life Sciences, Pittsburgh, Pa.) were blocked with 5% non-fat milk for 1 hour at room temperature, and incubated with primary antibodies overnight at 4° C. Primary antibodies used were anti-p-ERK1/2 (Cell Signaling Technology, Inc., Danvers, Mass., US) and anti-β-actin (Sigma-Aldrich Co. LLC, Saint Louis, Mo., US). Following washing with TBS-T buffer, membranes were incubated with horseradish peroxidase-conjugated secondary antibodies for 1 hour and then washed with TBS-T. Immunoblots were developed using the Amersham Western Blotting ECL chemiluminescent reagents (GE Healthcare Life Sciences, Pittsburgh, Pa., US). Protein loading was normalized by probing blots for the expression of β-actin.

[5] = patients with mCRC, Amado et al. 2008; cited from earlier work

Compound | effect on RKO cell viability (RKO cells [1]) | caspase 3/7 activity (apoptosis), single agent (DiFi cells) | effect on HCT116 cell viability (HCT116 cells [2]) | effect on clonogenic growth (colony formation) of HCT116 cells (HCT116 cells [3]) | effect on clonogenic growth (colony formation) of RKO cells (RKO cells [4]) | phosphorylation status of ERK 1/2 (p-ERK 1/2 by Western blot) (ERK 1/2) | caspase 3/7 activity (apoptosis) in the presence of fibroblast conditioned media (FIB) (DiFi cells; gefitinib 1 μM, JNJ 38877605 1 μM, CCD-18Co conditioned media) | KRas WT patients who benefit [5] [%]
Cn1cc(-c2ccc3nnc(C(F)(F)c4ccc5ncccc5c4)n3n2)cn1 [JNJ 38877605] | no apparent effect on cell viability | no apparent effect on induction of caspases/apoptosis | no apparent effect on cell viability | no apparent effect on clonogenic growth | no apparent effect on clonogenic growth | – | – | –
COc1cc2ncnc(Nc3ccc(F)c(Cl)c3)c2cc1OCCCN1CCOCC1 [gefitinib] | modest | increase in caspase 3/7 activity | modestly decreased cell viability | no apparent effect on clonogenic growth | no apparent effect on clonogenic growth | an increase in the amount of p-ERK 1/2 | inhibit gefitinib-induced apoptosis | –
PD184161 | no apparent effect on cell viability | – | no apparent effect on cell viability | no apparent effect on clonogenic growth | no apparent effect on clonogenic growth | – | – | –
panitumumab | – | – | – | – | – | – | – | 17

Reference: patent US20170027951A1, “METHODS AND COMPOSITIONS TO TREAT CANCERS INVOLVING EGFR” (Southern Research Institute, priority 2015, published 2017)
